Laboratory results published in paper PMC8659250, “Adjusting the Structure of β-Cyclodextrin to Improve Complexation of Anthraquinone-Derived Drugs” (Molecules, 2021).
Structures can show the parent of a compound that is named as a salt. Where two headings read alike, the source gives them in different places.

Key:
[1] = Solubility of AQ2CA without cyclodextrins (UV-Vis); format: physicochemical; conditions: 25 °C, thermodynamic from solid
Source text: (§1) Anthraquinone-2-carboxylic acid (AQ2CA) is a poorly water-soluble drug (SAQ2CA in water = 3.98 × 10^−5 M). […] An improvement in the aqueous solubility of AQ2CA would improve the biological availability of the drug. Such a drug solubilization effect was achieved via complexation using appropriate CD derivatives. The phase solubility method developed by Higuchi and Connors was employed to quantify the solubilization ability of cyclodextrins. The solubility values of AQ2CA in water, BR buffer at pH 7.4 (pH corresponding to the physiological conditions), and BR buffer at pH 3.0, with the addition of CDs was determined. The pH values characteristic for bodily fluids (pH 7.4) and for gastric juices (pH 3) were chosen for these measurements. […] According to the Higuchi and Connors classification, the phase solubility diagrams for anthraquinone-2-carboxylic acid with various cyclodextrin concentrations can be classified as AL type.
(§2) Solubility studies of anthraquinone-2-carboxylic acid with three different cyclodextrins were carried out according to the Higuchi and Connors procedure. The solutions of cyclodextrin in water and Britton–Robinson buffers (pH 7.4 and 5.5) were prepared in a concentration range of 0–3 mM. A constant amount of AQ2CA (3 mM) that exceeded its solubility was added into the cyclodextrin solution. Molar ratios of AQ2CA/CD were 1:0, 1:0.2, 1:0.4, 1:0.6, 1:0.8, and 1:1. Three samples of each molar ratio were prepared. The suspensions were shaken for 24 h at 25 °C, after which equilibrium was reached. After 24 h, the concentration of the dissolved drug was monitored by UV-Vis spectroscopy and plateaued; thus, the maximum dissolved drug was achieved. Subsequently, the samples were filtered using a 0.45 µm filter and appropriately diluted. The aliquots of solutions were assayed for AQ2CA again, by UV-Vis spectroscopy, in the 200–600 nm range with a maximum absorbance value for AQ2CA at 335 nm. […] The association constants of the inclusion complexes were determined using the following equation:(1) K1:1=Slope/S0(1−Slope) where K1:1 is the association constant and S0 is the solubility of AQ2CA in the absence of cyclodextrin. The slope was measured by UV-Vis spectroscopy from the initial straight-line part of the AQ2CA concentration vs. CD concentration plot. The uncertainty was determined as the standard deviation of the three values of the association constants obtained from three different repetitions of the given system.

[2] = cited from earlier work
[3] = Phase solubility diagrams (Higuchi and Connors) of AQ2CA with cyclodextrins; format: physicochemical; conditions: for K1:1 (association constant, AQ2CA–cyclodextrin): phase solubility diagram, 25 °C; for Increase in solubility of AQ2CA (in words): pH 3.0
Source text: as §1
The association constant of the AQ2CA–cyclodextrin complex (1:1) was calculated from the linear plot of the phase solubility diagrams using Equation (1). The lines are started at the point of initial drug solubility, meaning, i.e., without the addition of cyclodextrin. The values of K1:1, as well as the solubility increase and correlation coefficients of the phase solubility diagrams, are presented in Table 1.
as §2, with “The solutions of cyclodextrin in water and Britton–Robinson buffers (pH 7.4 and 5.5) were prepared in a concentration range of 0–3 mM.” left out

[4] = Determination of pKa values of CD derivatives by UV-Vis spectroscopy; format: physicochemical; conditions: Britton–Robinson buffer, pH range 2.7 to 9.5, triazole linker
Source text: Due to the fact that the triazole linker in CD derivatives contains a basic nitrogen atom that can be protonated at an acidic pH, we determined the value of pKa by UV-Vis spectroscopy. The spectra of βCDGAL, βCDLip, and βCDTriazol, at the pH range between 2.7 and 9.5, are presented on Figure 3. The dependence of the absorbance of the peak maximum at wavelengths in the range of 210–220 on the pH of the buffer is presented in the figures. According to the equation […] for equal concentrations of the protonated and deprotonated forms, pKa = pH; the pKa value, for all three derivatives containing the triazole linker, was determined to be 4.5.
The UV-Vis measurements were performed using an Agilent Technologies Cary 60 UV-Vis Spectrophotometer (Santa Clara, CA, USA). All UV-Vis spectra were measured using quartz cuvettes with a 1 cm optical path length. For pKa determination the 0.2 mg/mL concentration of βCDTriazole, βCDGAL or βCDLip in Britton–Robinson buffer were used.

SMILES	K1:1 (association constant, AQ2CA–cyclodextrin) ([3]; Britton–Robinson buffer pH 3.0) [M⁻¹]	K1:1 (association constant, AQ2CA–cyclodextrin) ([3]; Britton–Robinson buffer pH 7.4) [M⁻¹]	K1:1 (association constant, AQ2CA–cyclodextrin) ([3]; water) [M⁻¹]	pKa [4]	other results
O=C(O)c1ccc2c(c1)C(=O)c1ccccc1C2=O [AQ2CA, 9,10-dihydro-9,10-dioxo-2-anthracenecarboxylic acid]	–	–	–	–	solubility at 24 h ([1]; aqueous buffer, Britton–Robinson buffer pH 3.0, without CDs, read-out: Solubility of AQ2CA in Britton–Robinson buffer, pH 3.0): 1.43 µM; solubility at 24 h ([1]; aqueous buffer, Britton–Robinson buffer pH 3.0, read-out: Solubility in Britton–Robinson buffer, pH 3.0 without CDs): 0.36 µg/mL; solubility at 24 h ([1]; aqueous buffer, Britton–Robinson buffer pH 7.4, without CDs, read-out: Solubility of AQ2CA in Britton–Robinson buffer, pH 7.4): 1740 µM; solubility at 24 h ([1]; aqueous buffer, Britton–Robinson buffer pH 7.4, read-out: Solubility in Britton–Robinson buffer, pH 7.4 without CDs): 440 µg/mL; solubility at 24 h ([1]; water, without CDs, read-out: Solubility of AQ2CA in water): 39.8 µM; solubility at 24 h ([1]; water, water, read-out: Solubility in water without CDs): 10 µg/mL
COc1cccc2c1C(=O)c1c(O)c3c(c(O)c1C2=O)C[C@@](O)(C(C)=O)C[C@@H]3O[C@H]1C[C@H](N)[C@H](O)[C@H](C)O1 [DNR, daunorubicin]	–	–	–	–	pKa [2]: 7.48
OC[C@H]1O[C@@H]2O[C@H]3[C@H](O)[C@@H](O)[C@@H](O[C@H]4[C@H](O)[C@@H](O)[C@@H](O[C@H]5[C@H](O)[C@@H](O)[C@@H](O[C@H]6[C@H](O)[C@@H](O)[C@@H](O[C@H]7[C@H](O)[C@@H](O)[C@@H](O[C@H]8[C@H](O)[C@@H](O)[C@@H](O[C@H]1[C@H](O)[C@H]2O)O[C@@H]8CO)O[C@@H]7CO)O[C@@H]6CO)O[C@@H]5CO)O[C@@H]4CO)O[C@@H]3CO [βCD, β-Cyclodextrin]	1480 ± 180	350 ± 40	460 ± 45	–	–
O=C(N[C@H]1C(O)O[C@H](CO)[C@H](O)[C@@H]1O)OCc1cn(C[C@H]2O[C@@H]3O[C@H]4[C@H](O)[C@@H](O)[C@@H](O[C@H]5[C@H](O)[C@@H](O)[C@@H](O[C@H]6[C@H](O)[C@@H](O)[C@@H](O[C@H]7[C@H](O)[C@@H](O)[C@@H](O[C@H]8[C@H](O)[C@@H](O)[C@@H](O[C@H]9[C@H](O)[C@@H](O)[C@@H](O[C@H]2[C@H](O)[C@H]3O)O[C@@H]9CO)O[C@@H]8CO)O[C@@H]7CO)O[C@@H]6CO)O[C@@H]5CO)O[C@@H]4CO)nn1 (stereo partly drawn) [βCDGAL]	2760 ± 110	1300 ± 60	840 ± 45	4.5	Increase in solubility of AQ2CA (in words) [3]: almost tenfold increase

The next lines start with results.

K1:1 (association constant, AQ2CA–cyclodextrin) ([3]; Britton–Robinson buffer pH 3.0) [M⁻¹]	K1:1 (association constant, AQ2CA–cyclodextrin) ([3]; Britton–Robinson buffer pH 7.4) [M⁻¹]	K1:1 (association constant, AQ2CA–cyclodextrin) ([3]; water) [M⁻¹]	pKa [4]	SMILES	other results
2520 ± 175	940 ± 25	800 ± 40	4.5	O=C(CCCCC1CCSS1)OCc1cn(C[C@H]2O[C@@H]3O[C@H]4[C@H](O)[C@@H](O)[C@@H](O[C@H]5[C@H](O)[C@@H](O)[C@@H](O[C@H]6[C@H](O)[C@@H](O)[C@@H](O[C@H]7[C@H](O)[C@@H](O)[C@@H](O[C@H]8[C@H](O)[C@@H](O)[C@@H](O[C@H]9[C@H](O)[C@@H](O)[C@@H](O[C@H]2[C@H](O)[C@H]3O)O[C@@H]9CO)O[C@@H]8CO)O[C@@H]7CO)O[C@@H]6CO)O[C@@H]5CO)O[C@@H]4CO)nn1 (stereo partly drawn) [βCDLip]	Increase in solubility of AQ2CA (in words) [3]: almost tenfold increase
–	–	–	4.5	CCCc1cn(C[C@H]2O[C@@H]3O[C@H]4[C@H](O)[C@@H](O)[C@@H](O[C@H]5[C@H](O)[C@@H](O)[C@@H](O[C@H]6[C@H](O)[C@@H](O)[C@@H](O[C@H]7[C@H](O)[C@@H](O)[C@@H](O[C@H]8[C@H](O)[C@@H](O)[C@@H](O[C@H]9[C@H](O)[C@@H](O)[C@@H](O[C@H]2[C@H](O)[C@H]3O)O[C@@H]9CO)O[C@@H]8CO)O[C@@H]7CO)O[C@@H]6CO)O[C@@H]5CO)O[C@@H]4CO)nn1 [βCDTriazol]	–
2450 ± 200	–	280 ± 30	–	NC[C@H]1O[C@@H]2O[C@H]3[C@H](O)[C@@H](O)[C@@H](O[C@H]4[C@H](O)[C@@H](O)[C@@H](O[C@H]5[C@H](O)[C@@H](O)[C@@H](O[C@H]6[C@H](O)[C@@H](O)[C@@H](O[C@H]7[C@H](O)[C@@H](O)[C@@H](O[C@H]8[C@H](O)[C@@H](O)[C@@H](O[C@H]1[C@H](O)[C@H]2O)O[C@@H]8CO)O[C@@H]7CO)O[C@@H]6CO)O[C@@H]5CO)O[C@@H]4CO)O[C@@H]3CO [βCDamine, 6-monodeoxy-6-monoamino-β-cyclodextrin hydrochloride]	pKa ([2]; amine derivative CD): 8.84
